The record followed here is patent publication EP0343954B1, “Aromatic steroid 5-alpha-reductase inhibitors” (SMITHKLINE BEECHAM CORPORATION, priority 1988, dated 1989).

What is called Km is the concentration of substrate that gives half-maximal velocity. The term Ki denotes a dissociation constant, usually derived from enzyme kinetics or from competition with a known ligand. Higher therefore signals a looser hold on the target.

Sequences and labels used below:
T1: human steroid 5-α-reductase (Homo sapiens, UniProt P31213)
T1 construct: an aliquot of prostatic particulate solution to a final volume of 0.5 ml of 50 mM sodium citrate, pH 5.0; from tissue; host or cells: hyperplastic human prostate; washed 140,000 x g particulate fraction
T1 sequence (P31213 1-254): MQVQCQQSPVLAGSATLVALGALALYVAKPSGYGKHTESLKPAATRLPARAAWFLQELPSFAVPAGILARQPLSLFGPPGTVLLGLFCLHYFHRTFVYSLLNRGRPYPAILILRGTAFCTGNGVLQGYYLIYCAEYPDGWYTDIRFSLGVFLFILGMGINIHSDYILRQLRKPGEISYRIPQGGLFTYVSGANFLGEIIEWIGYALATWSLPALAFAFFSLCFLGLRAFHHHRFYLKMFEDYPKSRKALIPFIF

B1: human steroid 5-α-reductase (Homo sapiens) (protein)
chain: MQVQCQQSPVLAGSATLVALGALALYVAKPSGYGKHTESLKPAATRLPARAAWFLQELPSFAVPAGILARQPLSLFGPPGTVLLGLFCLHYFHRTFVYSLLNRGRPYPAILILRGTAFCTGNGVLQGYYLIYCAEYPDGWYTDIRFSLGVFLFILGMGINIHSDYILRQLRKPGEISYRIPQGGLFTYVSGANFLGEIIEWIGYALATWSLPALAFAFFSLCFLGLRAFHHHRFYLKMFEDYPKSRKALIPFIF

Substrate in the first data set: C[C@]12CC[C@H]3[C@@H](CCC4=CC(=O)CC[C@@]43C)[C@@H]1CC[C@@H]2O
The data set can be described thus: purified protein, by the assay type. The settings on record: other: substrate of steroid 5-α-reductase, used in equation 1.
Turning to B1, the Km stood at 4.5 µM.

Another data set concerns steroid 5-α-reductase. Briefly: In vivo inhibition of steroid 5-α-reductase: DHT levels in rat ventral prostate (HPLC, radioimmunoassay). The settings on record: rats, dose of 20mg/kg, four hours after compound administration, p<.15. The arrangement: species or system Male Charles River CD rats. As to the method:
One of the compounds of the invention, 17β-(N-tert-butylcarboxamide)-estr-1,3,5(10)-triene-3-carboxylic acid, also was tested for its in vivo potency in inhibiting steroid 5-α-reductase activity. Male Charles River CD rats, 48 days old, weighing approximately 200 gm were administered this compound dissolved in propylene glycol and diluted in normal saline. Following compound administration the animals were sacrificed, the ventral prostates were excised, and DHT levels were measured by the following procedure.
Prostate tissue was excised, trimmed, weighed, minced and washed with phosphate buffer. The tissue then was homogenized in phosphate buffer and extracted by addition of ethyl acetate and mixing on an orbital mixer for forty-five minutes. The ethyl acetate was evaporated, the residue was reconstituted in ethanol, and was centrifuge filtered using […] filter paper. The components then were separated using reverse-phase HPLC collecting the DHT fraction. The fraction was reduced to dryness and reconstituted in standard DHT assay buffer available from Amersham. DHT levels then were measured using standard techniques such as radioimmunoassay.
In the compound-treated rats, prostatic DHT levels were decreased forty percent relative to vehicle-treated controls (p<.15) four hours after compound administration at a dose of 20mg/kg.
Regarding `CC(C)(C)NC(=O)[C@H]1CC[C@H]2[C@@H]3CCc4cc(C(=O)O)ccc4[C@H]3CC[C@]12C` [17β-(N-tert-Butylcarboxamide)-estr-1,3,5(10)-triene-3-carboxylic Acid], the “prostatic DHT levels decreased relative to vehicle-treated controls” value is “forty”.

The target in another data set is T1, human steroid 5-α-reductase. The data set can be described thus: Inhibition of human prostatic steroid 5-α-reductase: [14C]-testosterone conversion by prostatic particulate, Dixon plot. The data set is classed as biochemical.
Details: not given
As to the method: The potency of several compounds of the invention was tested for potency in inhibiting human steroid 5-α-reductase using tissue from hyperplastic human prostates. In determining potency in inhibiting the human enzyme, the following procedure was employed:
Frozen human prostates were thawed and minced into small pieces ( 5mm³). The tissue was homogenized in 3 to 5 volumes of 20 mM potassium phosphate, pH 6.5, buffer containing 0.33 M sucrose, 1 mM dithiothreitol, and 50 µM NADPH with a Brinkmann Polytron (Sybron Corporation, Westbury, New York). The solution was subjected to sonication for 3 to 5 minutes with a Sonifier (Branson Sonic Power Co.) followed by hand homogenization in a glass-to-glass Dounce homogenizer (Kontes Glass Company, Vineland, New Jersey).
Prostatic particles were obtained by differential centrifugation at 600 or 1000 x g for 20 minutes and 140,000 x g for 60 minutes at 4°C. The pellet obtained from the 140,000 x g centrifugation was washed with 5 to 10 tissue volumes of the buffer described above and recentrifuged at 140,000 x g. The resulting pellet was suspended in 20 mM potassium phosphate buffer, pH 6.5, containing 20% glycerol, 1 mM dithiothreitol, and 50 µM NADPH. The suspended particulate solution was stored at -80°C.
To each tube was added buffer, 20 µl of 10 mM NADPH and an aliquot of prostatic particulate solution to a final volume of 0.5 ml of 50 mM sodium citrate, pH 5.0. […] The organic layer was removed to a second test tube and evaporated to dryness in vacuo. The residue was dissolved in 20 to 30 µl chloroform, spotted on an individual lane of a 20 x 20 cm prechannelled silica gel TLC plate (Si 250F-PA, Baker Chemical) and developed twice with acetone:chloroform (1:9). The radiochemical content in the bands of the substrate and the products was determined with a BIOSCAN Imaging Scanner (Bioscan, Inc., Washington, D.C.). The percent of recovered radiolabel converted to product was calculated, from which enzyme activity was determined.
The experimentally obtained data was computer fitted to a linear function by plotting the reciprocal of the enzyme activity (1/velocity) against the variable inhibitor concentration (Dixon, M. (1953), Biochem. J., 55, 170).
`Cc1cc2c(cc1C(=O)O)CC[C@@H]1[C@@H]2CC[C@]2(C)[C@@H](C(=O)N(C(C)C)C(C)C)CC[C@@H]12` [17β-(N,N-Diisopropylcarboxamide)-2-methyl-estr-1,3,5(10)-triene-3-carboxylic Acid] showed a Ki of 57 nM.

In turn, `CC(C)N(C(=O)C1=CC[C@H]2[C@@H]3CCc4cc(C(=O)O)ccc4[C@H]3CC[C@]12C)C(C)C` [17β-(N,N-Diisopropylcarboxamide)-estr-1,3,5(10),16-tetraene-3-carboxylic Acid] had an inhibition constant Ki of 70 nM.

For `CC(C)(C)NC(=O)[C@H]1CC[C@H]2[C@@H]3CCc4cc(C(=O)O)ccc4[C@H]3CC[C@]12C` [17β-(N-tert-Butylcarboxamide)-estr-1,3,5(10)-triene-3-carboxylic Acid], the Ki worked out at 43 nM. Compared with the last molecule, the Ki is about 1.6-fold lower.

The molecule `CC(C)N(C(=O)[C@H]1CC[C@H]2c3ccc4cc(C(=O)O)ccc4c3CC[C@]12C)C(C)C` [17β-(N-N-Diisopropylcarboxamide)-estr-1,3,5(10),-6,8-pentaene-3-carboxylic Acid] displayed a Ki of 40 nM.

As for `CC(C)N(C(=O)[C@H]1CC[C@H]2[C@@H]3CCc4cc(CC(=O)O)ccc4[C@H]3CC[C@]12C)C(C)C` [17β-(N,N-diisopropylcarboxamide)-estr-1,3,5(10)-triene-3-acetic acid], the affinity, expressed as Ki, was 20 nM.

With `Cc1c(C(=O)O)ccc2c1CC[C@@H]1[C@@H]2CC[C@]2(C)[C@@H](C(=O)N(C(C)C)C(C)C)CC[C@@H]12` [17β-(N-N-Diisopropylcarboxamide)-4-methyl-estr-1,3,5(10)-triene-3-carboxylic Acid], the Ki was found to be 270 nM.

On to `CC(C)N(C(=O)[C@H]1CC[C@H]2[C@@H]3CCc4cc(C(=O)O)ccc4[C@H]3CC[C@]12C)C(C)C` [17β-(N,N-Diisopropylcarboxamide)-estr-1,3,5(10)-triene-3-carboxylic Acid], for which the affinity, expressed as Ki, was 19 nM.

With `CC(C)N(C(=O)[C@H]1CC[C@H]2[C@@H]3C=Cc4cc(C(=O)O)ccc4[C@H]3CC[C@]12C)C(C)C` [17β-(N,N-Diisopropylcarboxamide)-estr-1,3,5(10),6-tetraene-3-carboxylic Acid], the affinity corresponds to a Ki of 30 nM.

As to `CC(C)(C)NC(=O)C1=CC[C@H]2[C@@H]3CCc4cc(C(=O)O)ccc4[C@H]3CC[C@]12C` [17β-(N-tert-Butylcarboxamide)-estr-1,3,5(10),-16-tetraene-3-carboxylic Acid], affinity was put at a Ki of 60 nM. Compared with the last molecule, the Ki is about 2-fold higher.
